Source: patent US20090298903A1, “USE OF TETRAMIC ACID DERIVATIVES FOR INSECT CONTROL” (priority 2006, published 2009)

Legend:
Type in all cases: in vivo
Liriomyza sp. = assay: Example 18: beans against Liriomyza sp.; conditions: for Efficacy (% Abbott) 2 d: 2 d after first treatment, 10 leaves, Cyromazine (WP 75) 130, (I-4) (150 OD) 100, Abamectin (EC 018) 14.4 g a.s./ha, three applications, 7-day intervals; for Efficacy (% Abbott) 7 d: 7 d after first treatment; for Efficacy (% Abbott) 7 d / Efficacy (% Abbott) 12 d / Efficacy (% Abbott) 18 d / Efficacy (% Abbott) 20 d / Efficacy (% Abbott) 25 d: Cyromazine 130, (I-4) 100, Abamectin 14.4 g a.s./ha; for Efficacy (% Abbott) 12 d: 12 d after first treatment; for Efficacy (% Abbott) 18 d: 18 d after first treatment; for Efficacy (% Abbott) 20 d: 20 d after first treatment; for Efficacy (% Abbott) 25 d: 25 d after first treatment
Procedure: Plots approx. 10 m^2 in size which are planted with beans cv. “Lago Azul” are treated, in three replications, against Liriomyza sp. Here, the active substance Example (I-4) (150 OD) and the commercial standards Cyromazine (WP 75) and Abamectin (EC 018) are applied at the specified application rates, using a knapsack sprayer which is operated with pressurized gas. The water application rate is 400 and 500 l/ha., respectively. Three applications are carried out at intervals of in each case 7 days.
The destruction rate in percent is determined on in each case 10 leaves. 2, 7, 12, 18, 20 and 25 days after the first treatment, the following results are obtained: […]

Idioscopus clypealis = assay: Example 14: mango tree against Idioscopus clypealis; conditions: nymphs on infructescences
Procedure: A mango tree which is approximately 14 years old is treated, in three replications, against Idioscopus clypealis. The application is carried out with a high-pressure sprayer. Here, the active substance Example (I-4) (240 SC), in a tank mix with 0.2% a.s. rapeseed oil methyl ester (500 EW) and the commercial standards Imidacloprid (100 SL) and Pymetrozine (WP 25), is tested at the specified application rates. The amount of spray mixture is 10 l/tree. Five treatments are carried out at intervals of 7, 14, 21 and 28 days.
The test is evaluated in each case 7 days after treatments 3 to 5 by scoring the destruction rate of the nymphs on the infructescences.

Scirtothrips dorsalis = assay: Example 10: tea plants against Scirtothrips dorsalis; conditions: 7 d after treatment, nymphs, Ethiprole (SC10) 0.005, (I-4) (100 OD) 0.01, Imidacloprid (50 WG) 0.005 % a.s.
Procedure: Plots approx. 5 m^2 in size which are planted with tea plants cv. “Yabukita” which are approximately 18 years old are treated, in three replications, against Scirtothrips dorsalis. Here, the active substance Example (I-4) (100 OD) is tested, at the specified application rates, against the commercial standards Ethiprole (SC10 flowable) and Imidacloprid (50 WG). The application is carried out with a sprayer which is operated with pressurized air. The water application rate is 4500 l/ha. The test is evaluated 7 days after the treatment by scoring the destruction rate of the nymphs and the plants.

[1] = tested on: olive fruit fly (Dacus oleae); assay: Example 22B: laboratory experiment, olives against olive fruit fly; conditions: olives treated three days after oviposition; Imidacloprid (200 SL) 0.01 %, (I-4) (100 OD) 0.02 %, Fenthion (500 EC) 0.05 %; untreated 84.4
Procedure: In a laboratory experiment, 40 olives are treated, in four replications, against the olive fruit fly (Dacus oleae) three days after oviposition. Here, the active substance (I-4) (100 OD) and the commercial standards Fenthion (500 EC) and Imidacloprid (200 SL) are tested at the specified application rates.
The test is evaluated 14 days after oviposition by counting the number of feeding tunnels (larval development completed), while the absence of such feeding tunnels indicates the efficacy against the larvae.

Ceratitis capitata = assay: Example 20: peach trees against Ceratitis capitata; conditions: animals on fruits
Procedure: Peach trees cv. “Oom Sarel” which are approximately 10 years old are treated, in three replications, against Ceratitis capitata. The application is carried out with a high-pressure sprayer or a knapsack sprayer which is operated with pressurized air. Here, the active substance Example (I-4) (150 OD) and the commercial standard Fenthion (500 EC) are tested at the specified application rates. The water application rate is 2500 l/ha. Three applications are carried out at an interval of 7 and 19 days, respectively.
The test is evaluated 9 and 16 days after treatment 3 by scoring the destruction rate of the animals on the fruits with the aid of the Abbott formula.

Dacus ciliatus = assay: Example 22A: bottle gourds against Dacus ciliatus
Procedure: Plots approx. 10 m^2 in size which are planted with bottle gourds cv. “Waltham” are treated, in three replications, against Dacus ciliatus. The application is carried out with a motor-operated knapsack sprayer. Here, the active substance Example (I-4) (150 OD) and the commercial standard Fenthion (500 EC) are tested at the specified application rates. Three applications are carried out at in each case an interval of 7 days. The water application rate is approx. 500 l/ha.
The test is evaluated 8, 14 and 21 days after treatment 1 by scoring the infestation of the fruits.

[2] = tested on: Frankliniella occidentalis; assay: Example 5: aubergines against Frankliniella occidentalis; conditions: mixed populations on leaves
Procedure: Plots 6 m^2 in size which are planted with aubergines cv. “Soraya” are treated, in three replications, against Frankliniella occidentalis. The application is effected with a motor-operated knapsack sprayer. Here, the active substances Example (I-4) (240 SC) and Example (I-9) (240 SC), in a tank mix together with 0.1% a.s. rapeseed oil methyl ester (500 EW) and the commercial standard Spinosad (480 SC), are tested at the specified application rates. The water application rate is 1500 l/ha.
The test is evaluated 25, 32 and 39 days after the treatment by scoring the destruction rate of the mixed populations on the leaves.

Ceutorhynchus napi = assay: Example 26-A: oilseed rape against Ceutorhynchus napi; conditions: 55 d after treatment, larvae, Deltamethrin (25 EC) 5, (I-4) (+ 0.2% rapeseed oil methyl ester) 72, Thiacloprid (OD 240) 72, Lambda-cyhalothrin 5 g a.s./ha
Procedure: Plots approx. 25 m^2 in size which are planted with oilseed rape cv. “Artus” are treated, in four replications, against Ceutorhynchus napi. The application is carried out with a motor-operated knapsack sprayer. Here, the active substance Example (I-4), in a tank mix with 0.2% a.s. rapeseed oil methyl ester (500 EW) and the commercial standards Deltamethrin (25 EC), lambda-cyhalothrin (S100) and Thiacloprid (OD 240), is tested at the specified application rates. The water application rate is 250 l/ha.
The test is evaluated 55 days after the treatment by scoring the destruction rate of the larvae on the plants.

[3] = tested on: Frankliniella occidentalis; assay: Example 2: bell peppers against Frankliniella occidentalis; conditions: Acrinathrin 60, (I-9) 54, (I-4) 60 g a.s./ha, (I-9)/(I-4) 240 SC + 0.1% rapeseed oil methyl ester
Procedure: Plots 10 m^2 in size which are planted with bell peppers cv. “Zingaro” are treated, in three replications, against Frankliniella occidentalis. The application is effected with a knapsack sprayer which is operated with pressurized air. Here, the active substances Example (I-9) (240 SC) and Example (I-4) (240 SC), in the form of a tank mix together with 0.1% a.s. rapeseed oil methyl ester (500 EW) and the commercial standard acrinathrin (075 EW), are applied at the specified application rates. Two applications are carried out at an interval of 24 days, with a water application rate of 1000 l/ha.
The test is evaluated 17 and 21 days after treatment 1 and 4 days after treatment 2 by scoring the destruction of the animals (nymphs) on the flowers.

Empoasca biguttula = assay: Example 12: cotton against Empoasca biguttula
Procedure: Plots 10 m^2 in size which are planted with cotton are treated, in three replications, against Empoasca biguttula. The application is carried out with a knapsack sprayer operated with pressurized air. Here, the active substance Example (I-4) (240 SC), in a tank mix with 0.2% a.s. rapeseed oil methyl ester (500 EW), is tested against the commercial standards Imidacloprid (SL 100) and Buprofezin (WP50) at the specified application rates. Two applications are carried out at an interval of 7 days. The water application rate is 750 l/ha.
The test is evaluated 3, 7, 14 and 21 days after the second treatment by counting the live animals. Thereafter, the efficacy is calculated in percent, using the formula of Henderson and Tilton.

[4] = Imidacloprid 0.00025 %, (I-4) 0.0016 %, Pymetrozine 0.002 %

Nc1nc(N)nc(NC2CC2)n1 [Cyromazine]
Efficacy (% Abbott) 2 d (Liriomyza sp.): 44 % Abbott | Efficacy (% Abbott) 7 d (Liriomyza sp.): 61 % Abbott | Efficacy (% Abbott) 12 d (Liriomyza sp.): 42 % Abbott | Efficacy (% Abbott) 18 d (Liriomyza sp.): 54 % Abbott | Efficacy (% Abbott) 20 d (Liriomyza sp.): 32 % Abbott | Efficacy (% Abbott) 25 d (Liriomyza sp.): 0 % Abbott

CC1=NNC(=O)N(/N=C/c2cccnc2)C1 [Pymetrozine]
Efficacy (% Abbott) 7 days after treatment 4 (Idioscopus clypealis; [4]): 98.6 % Abbott | Efficacy (% Abbott) 7 days after treatment 5 (Idioscopus clypealis; [4]): 94.8 % Abbott | Efficacy (% Abbott) 7 days after treatment 3 (Idioscopus clypealis; Imidacloprid (100 SL) 0.00025 %, (I-4) (240 SC + 0.2% rapeseed oil methyl ester) 0.0016 %, Pymetrozine (WP 25) 0.002 %): 70.9 % Abbott

CC[S+]([O-])c1c(C#N)nn(-c2c(Cl)cc(C(F)(F)F)cc2Cl)c1N (stereo not drawn) [Ethiprole]
Efficacy (% Abbott) 7 d (Scirtothrips dorsalis): 100 % Abbott

COP(=S)(OC)Oc1ccc(SC)c(C)c1 [Fenthion]
Number of feeding tunnels (%) 14 days after oviposition [1]: 1.9% | Efficacy (% Abbott) 16 d after treatment 3 (Ceratitis capitata; Fenthion 1700, (I-4) 100 g a.s./ha): 88.9 % Abbott | Efficacy (% Abbott) 9 d after treatment 3 (Ceratitis capitata; Fenthion (500 EC) 1700, (I-4) (150 OD) 100 g a.s./ha): 86.7 % Abbott | Efficacy (% Abbott) 8 d (Dacus ciliatus; 8 d after treatment 1, infestation of fruits, Fenthion (500 EC) 300, (I-4) (150 OD) 200 g a.s./ha, three applications, 7-day intervals): 59.6 % Abbott | Efficacy (% Abbott) 14 d (Dacus ciliatus; 14 d after treatment 1, Fenthion 300, (I-4) 200 g a.s./ha): 48.9 % Abbott | Efficacy (% Abbott) 21 d (Dacus ciliatus; 21 d after treatment 1, Fenthion 300, (I-4) 200 g a.s./ha): 60.3 % Abbott

Spinosad
Efficacy (% Abbott) 25 d ([2]; 25 d after treatment, Spinosad (480 SC) 0.012, (I-9) 0.0054, (I-4) 0.012 % a.s., 240 SC + 0.1% rapeseed oil methyl ester): 94.7 % Abbott | Efficacy (% Abbott) 32 d ([2]; 32 d after treatment, Spinosad 0.012, (I-9) 0.0054, (I-4) 0.012 % a.s.): 89.3 % Abbott | Efficacy (% Abbott) 39 d ([2]; 39 d after treatment, Spinosad 0.012, (I-9) 0.0054, (I-4) 0.012 % a.s.): 95.3 % Abbott

Abamectin
Efficacy (% Abbott) 2 d (Liriomyza sp.): 36 % Abbott | Efficacy (% Abbott) 7 d (Liriomyza sp.): 80 % Abbott | Efficacy (% Abbott) 12 d (Liriomyza sp.): 52 % Abbott | Efficacy (% Abbott) 18 d (Liriomyza sp.): 70 % Abbott | Efficacy (% Abbott) 20 d (Liriomyza sp.): 43 % Abbott | Efficacy (% Abbott) 25 d (Liriomyza sp.): 60 % Abbott

CC1(C)[C@H](C(=O)O[C@H](C#N)c2cccc(Oc3ccccc3)c2)[C@@H]1/C=C(\Cl)C(F)(F)F (racemic) [Lambda-cyhalothrin, lambda-cyhalothrin]
Efficacy (% Abbott) 55 d (Ceutorhynchus napi): 89.5 % Abbott

CC1(C)[C@H](C(=O)O[C@H](C#N)c2cccc(Oc3ccccc3)c2)[C@@H]1/C=C\C(=O)OC(C(F)(F)F)C(F)(F)F [Acrinathrin, acrinathrin]
Efficacy (% Abbott) 4 d (2) ([3]; 4 d after treatment 2, nymphs on flowers): 87 % Abbott | Efficacy (% Abbott) 17 d (1) ([3]; 17 d after treatment 1, nymphs on flowers): 98 % Abbott | Efficacy (% Abbott) 21 d (1) ([3]; 21 d after treatment 1, nymphs on flowers): 91 % Abbott

CC(C)N1C(=O)N(c2ccccc2)CS/C1=N\C(C)(C)C [Buprofezin]
Efficacy (% H + T) 3 d (Empoasca biguttula; 3 d after second treatment, Henderson and Tilton, Imidacloprid (SL 100) 30, (I-4) (240 SC + 0.2% rapeseed oil methyl ester) 24, Buprofezin (WP50) 50 g a.s./ha): 96.5 % H + T | Efficacy (% H + T) 7 d (Empoasca biguttula; 7 d after second treatment, Imidacloprid 30, (I-4) 24, Buprofezin 50 g a.s./ha): 94.7 % H + T | Efficacy (% H + T) 14 d (Empoasca biguttula; 14 d after second treatment, Imidacloprid 30, (I-4) 24, Buprofezin 50 g a.s./ha): 90.1 % H + T | Efficacy (% H + T) 21 d (Empoasca biguttula; 21 d after second treatment, Imidacloprid 30, (I-4) 24, Buprofezin 50 g a.s./ha): 67.1 % H + T
